Laboratory results as given in patent US20100292345A1, “THERAPEUTIC USES OF CANNABIGEROL” (GW PHARMA LIMITED, priority 2007, published 2010).

Columns and labels:
[1] = target: T1, CB1 receptors in mouse brain tissue (Mus musculus, UniProt P47746); assay: [3H]CP55940 radioligand displacement assay, mouse whole brain membranes; type: binding
T1 construct: Whole mouse brain membranes were prepared as described by Thomas et al., 2004; from tissue; host or cells: whole mouse brain membranes
Protocol: (§1) Whole mouse brain membranes were prepared as described by Thomas et al., 2004. CHO cells were stably transfected with cDNA encoding human cannabinoid CB2 receptors and were maintained at 37° C. and 5% CO2 in Dulbecco's Modified Eagle's Medium nutrient mixture.
(§2) The assays were carried out with the established CB1 and CB2 cannabinoid receptor agonist CP55940. This was radiolabelled to form [^3H]CP55940.
(§3) Binding of the radiolabelled compound was initiated by the addition of either the brain membranes (33 μg protein per tube) or the transfected hCB2 cells (25 μg protein per tube).
(§4) All assays were performed at 37° C. for 60 min before termination by addition of ice-cold wash buffer (50 mM Tris buffer, 1 mg ml^−1 bovine serum albumin, pH 7.4) and vacuum filtration using a 24-well sampling manifold and GF/B filters that had been soaked in wash buffer at 4° C. for at least 24 h.
(§5) The test compounds were also tested to determine whether they were able to displace the agonist CP55940 from the binding site of the CB1 or CB2 receptor. The Ki-value that resulted from this investigation gives an insight into how strongly the test compound competes with the agonist for the binding site.

[2] = tested on: CB1 receptors in mouse brain tissue; assay: [35S]GTPγS binding assay, mouse brain membranes; type: biochemical; settings: conclusion from the example data
Protocol: as §1
The assays were carried out with GTPγS binding buffer (50 mM Tris-HCl; 50 mM Tris-Base; 5 mM MgCl2; 1 mM EDTA; 100 mM NaCl; 1 mM DTT; 0.1% BSA) in the presence of [^35S]GTPγS and GDP, in a final volume of 500 μl. Binding was initiated by the addition of [^35S]GTPγS to the tubes. The drugs were incubated in the assay for 60 min at 30° C. The reaction was terminated by a rapid vacuum filtration method using Tris buffer (50 mM Tris-HCl; 50 mM Tris-Base; 0.1% BSA), as described previously, and the radioactivity was quantified by liquid scintillation spectrometry.
The agonism of the CB1 or CB2 receptors by CP55940 results in a response in the cell. This response is the binding of [^35S]GTPγS to the cell membrane.
Changes in the response in the presence of the test compound can be measured in order to determine whether the compound is acting as an agonist, a neutral antagonist or an inverse agonist. An agonist will increase the response, a neutral antagonist will have no effect on the response and an inverse agonist will stop or reverse the response. […]

[3] = target: T2, human cannabinoid CB2 receptors (Homo sapiens, UniProt P34972); assay: [3H]CP55940 radioligand displacement assay, hCB2-CHO cell membranes; settings: membranes prepared from hCB2-CHO cells; 37° C., 60 min; read-out: Ki, displacement of [3H]CP55940 from specific binding sites
T2 construct: expressed in transfected cells; host or cells: CHO cells, stably transfected
Protocol: as §1, §2, §3, §4, §5

[4] = target: T2, human cannabinoid CB2 receptors; assay: Inhibition of forskolin-stimulated cyclic AMP production in hCB2-CHO cells; type: cell-based; set-up: Emax, inhibition of forskolin-stimulated cyclic AMP production: unit not given here

T2 sequence (P34972 whole entry): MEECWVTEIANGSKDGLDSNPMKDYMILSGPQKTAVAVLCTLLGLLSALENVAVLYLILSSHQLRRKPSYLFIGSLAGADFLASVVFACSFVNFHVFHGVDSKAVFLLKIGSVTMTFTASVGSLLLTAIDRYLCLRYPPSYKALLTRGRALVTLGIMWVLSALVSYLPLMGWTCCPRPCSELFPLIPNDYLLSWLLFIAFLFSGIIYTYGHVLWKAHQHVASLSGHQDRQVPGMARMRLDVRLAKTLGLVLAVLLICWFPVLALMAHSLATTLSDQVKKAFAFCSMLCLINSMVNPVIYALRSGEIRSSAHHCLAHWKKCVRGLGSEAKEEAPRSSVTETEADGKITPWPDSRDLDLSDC
T1 sequence (P47746 whole entry): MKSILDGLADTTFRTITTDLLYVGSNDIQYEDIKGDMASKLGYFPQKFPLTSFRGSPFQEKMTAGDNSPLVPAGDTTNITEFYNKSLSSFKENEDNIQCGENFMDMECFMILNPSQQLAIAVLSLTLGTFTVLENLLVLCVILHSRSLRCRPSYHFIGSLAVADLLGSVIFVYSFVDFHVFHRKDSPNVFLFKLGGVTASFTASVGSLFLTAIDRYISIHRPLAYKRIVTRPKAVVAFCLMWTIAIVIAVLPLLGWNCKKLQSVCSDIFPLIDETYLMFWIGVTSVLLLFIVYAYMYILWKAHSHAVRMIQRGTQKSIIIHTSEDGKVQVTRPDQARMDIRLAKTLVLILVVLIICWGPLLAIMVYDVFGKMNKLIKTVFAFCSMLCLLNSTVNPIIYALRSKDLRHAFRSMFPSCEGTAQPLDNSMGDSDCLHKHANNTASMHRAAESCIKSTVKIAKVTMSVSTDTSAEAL

Question: CCCCCc1cc(O)c(C/C=C(\C)CCC=C(C)C)c(O)c1 [CBG, cannabigerol] was tested. Which Ki [1] did it give?
Answer: The Ki was 439 nM.

Question: What about the “functional character at CB1 receptor” value [2] of the same compound?
Answer: The value was “partial agonist”.

Question: And the Ki [3]?
Answer: The Ki was 337 nM.

Question: What about the “functional character at CB2 receptor” value ([4]; conclusion from the example data) of the same compound?
Answer: Its value is “partial agonist”.

Question: And the EC50 ([4]; hCB2-CHO cells, 5 μM forskolin)?
Answer: Its EC50 is 388 nM.

Question: What about the “Emax, inhibition of forskolin-stimulated cyclic AMP production” value ([4]; hCB2-CHO cells, 5 μM forskolin) of the same compound?
Answer: Its value is 28.3.

Question: What about the “efficacy relative to CP55940 in inhibiting forskolin-stimulated cyclic AMP production” value ([4]; hCB2-CHO cells, 5 μM forskolin, submicromolar concentrations) of the same compound?
Answer: Its value is “efficacy less than that of CP55940”.
